Data from ChEMBL document CHEMBL1201862, “PubChem BioAssay data set” (2004).
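Briefly, cells in 96-well plates were exposed to five compound concentrations for 48 h, and endpoints were estimated by linear interpolation. Abbreviation: GI50, concentration required for 50% inhibition of growth.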 Calls of active or inactive are those of the source. Rule as the data show it: active = GI50 up to about 1.1 µM and inactive = higher.

How the values were obtained:
Assay in all cases: inhibition of tumour cell growth, NCI panel, 48 h
[1] = system: K562
[2] = system: U-251
[3] = system: NCI/ADR-RES
[4] = system: HCC 2998
[5] = system: NCI-H522
[6] = system: M14
[7] = system: SR
[8] = system: 786-0
[9] = system: HL-60
[10] = system: A498
[11] = system: DU-145
[12] = system: UO-31
[13] = system: MCF7
[14] = system: MDA-MB-435
[15] = system: EKVX
[16] = system: MDA-N
[17] = system: SF-268
[18] = system: UACC-257
[19] = system: Hs-578T
[20] = system: DLD-1

Measured: GI50

COC(=O)C(CCC1C=CN(S(=O)(=O)c2ccc(C)cc2)C1)/N=C/c1ccccc1 (configuration not stated)
inactive: [1] 34.7 µM | [2] 43.5 µM | [3] > 100 µM | [4] 43.1 µM | [5] 34.4 µM | [6] 42.7 µM | [7] 23.4 µM | [8] 43.8 µM | [9] 1.29 µM | [10] 99.3 µM | [11] 43 µM | [12] 65.5 µM | [13] 34.2 µM | [14] 33.2 µM | [15] 42.2 µM | [16] 38.3 µM | [17] 69.8 µM | [18] 50 µM | [19] > 100 µM

CCOC(=O)C(C)NC(=O)NC12CC3CC(CC(F)(C3)C1)C2 (configuration not stated)
inactive: [1] > 100 µM | [2] > 100 µM | [4] 31.8 µM | [5] 65.2 µM | [6] 63.8 µM | [20] > 100 µM | [8] > 100 µM | [9] 61.5 µM | [10] > 100 µM | [12] 40.2 µM | [15] > 100 µM | [18] 70.1 µM

NCCCN1CCN(CCCNc2ccc3nnn4c5ccccc5c(=O)c2c34)CC1
inactive: [1] 8.07 µM | [2] 24 µM | [3] 55 µM | [4] 11.9 µM | [5] 11.3 µM | [6] 17.6 µM | [7] > 100 µM | [8] 9.06 µM | [9] 8.59 µM | [10] 18.6 µM | [11] 14.9 µM | [12] 22.1 µM | [13] 16.2 µM | [14] 21.6 µM | [15] 19.9 µM | [16] 16.2 µM | [17] 31.3 µM | [18] 28.2 µM | [19] 27.4 µM

CCC/N=C/c1cc(Cc2ccc(O)c(/C=N/CCC)c2)ccc1O
inactive: [1] 1.69 µM | [2] 2.64 µM | [3] 17.2 µM | [4] 14.1 µM | [5] 20.6 µM | [6] 2.69 µM | [7] 1.95 µM | [8] 12.8 µM | [9] 2.21 µM | [10] 2.37 µM | [11] 4.61 µM | [12] 17.1 µM | [13] 2.36 µM | [14] 3.47 µM | [15] 8.87 µM | [16] 2.78 µM | [17] 3.8 µM | [18] 19.1 µM | [19] 16 µM

N#CC(/C(CCC(=O)Nc1ccc(Cl)cc1)=N/NC(=O)c1cc2ccccc2cc1O)c1ccccc1 (configuration not stated)
inactive: [2] 32.8 µM | [4] 52.2 µM | [6] 32.6 µM | [20] 33.7 µM | [8] 38.3 µM | [9] 6.53 µM | [12] 36.8 µM | [15] 34.4 µM | [17] 25.4 µM | [18] 30.7 µM

Cn1ccnc1CCc1ccc(Cl)cc1Cl
inactive: [1] > 100 µM | [2] > 100 µM | [4] > 100 µM | [5] > 100 µM | [6] > 100 µM | [20] > 100 µM | [8] > 100 µM | [9] 68.1 µM | [10] > 100 µM | [12] 49.5 µM | [15] 48.8 µM | [17] > 100 µM | [18] > 100 µM

CCOC(=O)C1CC(=O)C=C2CCCCC21 (configuration not stated)
inactive: [1] > 100 µM | [2] > 100 µM | [4] > 100 µM | [5] > 100 µM | [6] > 100 µM | [20] > 100 µM | [8] > 100 µM | [9] > 100 µM | [10] > 100 µM | [12] > 100 µM | [15] > 100 µM | [17] > 100 µM | [18] > 100 µM

CNC1=C/C(=N/C2=CC(=N/C(=C\C#N)C(C)(C)O)/OC2(C)C)OC1(C)C
inactive: [1] 3.12 µM | [2] 7.1 µM | [3] 40.4 µM | [4] 29.2 µM | [5] 13 µM | [6] 11.8 µM | [7] 4.9 µM | [8] 11.8 µM | [9] 2.01 µM | [10] 30.9 µM | [11] 12 µM | [12] 5.77 µM | [13] 5.82 µM | [14] 22.6 µM | [15] 13.7 µM | [16] 21.3 µM | [17] 4.31 µM | [18] 43.3 µM | [19] 35.1 µM

O=c1[nH]c(=O)n([C@H]2C[C@@H](CO)[C@@H](O)C2)cc1I
inactive: [1] > 100 µM | [2] > 100 µM | [4] > 100 µM | [5] > 100 µM | [6] > 100 µM | [20] > 100 µM | [8] > 100 µM | [9] > 100 µM | [10] > 100 µM | [12] > 100 µM | [15] > 100 µM | [17] > 100 µM | [18] > 100 µM
